41 compounds from US8546414B2, “Ion channel modulators and methods of use” (Vertex Pharmaceuticals Incorporated, priority 2004, dated 2013) can be followed below.

Common to all, as to type: cell-based
Assay [1] has as its target NaV1.8 (Homo sapiens, UniProt Q9Y5Y9). In words: VIPR optical membrane potential assay, NaV1.8 (other subtypes in an analogous mode). The conditions noted are these: Table 9, NaV 1.8 receptors. Here is the method:
Antagonist properties of test compounds were assessed as follows. Cells expressing the NaV of interest were placed into microtiter plates. After an incubation period, the cells were stained with fluorescent dyes sensitive to the transmembrane potential. The test compounds were added to the microtiter plate. The cells were stimulated with either chemical or electrical means to evoke a NaV dependent membrane potential change from unblocked channels, which was detected and measured with trans-membrane potential-sensitive dyes. Antagonists were detected as a decreased membrane potential response to the stimulus.
24 hours before the assay on VIPR, CHO cells endogenously expressing a NaV 1.2 type voltage-gated NaV are seeded in 96-well poly-lysine coated plates at 60,000 cells per well. […] Plates are incubated in the dark for 30 minutes at room temperature. • 4) While the cells are being stained with coumarin, a […] oxonol solution in BS#2 is prepared. […] As before, the residual volume should be 40 μL. • 6) Upon removing the bath, the cells are loaded with 80 μL of the DiSBAC2(3) solution, after which test compound, dissolved in DMSO, is added to achieve the desired test concentration to each well from the drug addition plate and mixed thoroughly. The volume in the well should be roughly 121 μL. The cells are then incubated for 20-30 minutes. • 7) Once the incubation is complete, the cells are ready to be assayed on VIPR® with a sodium addback protocol. 120 μL of Bath solution #1 is added to stimulate the NaV dependent depolarization. […] tetracaine was used as an antagonist positive control for block of the NaV channel. Analysis of VIPR® Data:
The following is an example of how NaV1.3 inhibition activity is measured using the optical membrane potential method#2. Other subtypes are performed in an analogous mode in a cell line expressing the NaV of interest.

The target of assay [2] is T1, CaV2.2 (Homo sapiens, UniProt Q00975).
T1 construct: expressed in transfected cells; host or cells: HEK293
In words: VIPR optical membrane potential assay with electrical stimulation, CaV2.2. The conditions noted are these: Table 9, CaV 2.2 receptors. In a few lines:
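HEK293 cells stably expressing CaV2.2 stained with CC2-DMPE/DiSBAC2(3) voltage-sensitive dyes (10 μM final CC2-DMPE, 30 min, RT), then compound added and cells electrically stimulated for 3-5 s. Read-out: background-subtracted 460/580 nm emission ratio; response R=Rf/Ri (post- vs pre-stimulus ratio); antagonism seen as reduced response.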

Assay [3] has as its target T2, NaV1.3 (Homo sapiens, UniProt Q9NY46).
T2 construct: expressed in transfected cells; host or cells: HEK293
In words: VIPR optical membrane potential assay with electrical stimulation, NaV1.3. The conditions noted are these: Table 9, NaV 1.3 receptors. An outline of the steps:
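HEK293 cells stably expressing NaV1.3, stained with CC2-DMPE (10 μM final) then DiSBAC2(3) with ABSC1, 30 min each at RT; compounds added with oxonol. Electrical stimulation for 3 s; 460/580 nm background-subtracted emission ratio Rf/Ri, normalised to tetracaine (positive) and untreated (negative) controls.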

Sequence of NaV1.8 (Q9Y5Y9 whole entry): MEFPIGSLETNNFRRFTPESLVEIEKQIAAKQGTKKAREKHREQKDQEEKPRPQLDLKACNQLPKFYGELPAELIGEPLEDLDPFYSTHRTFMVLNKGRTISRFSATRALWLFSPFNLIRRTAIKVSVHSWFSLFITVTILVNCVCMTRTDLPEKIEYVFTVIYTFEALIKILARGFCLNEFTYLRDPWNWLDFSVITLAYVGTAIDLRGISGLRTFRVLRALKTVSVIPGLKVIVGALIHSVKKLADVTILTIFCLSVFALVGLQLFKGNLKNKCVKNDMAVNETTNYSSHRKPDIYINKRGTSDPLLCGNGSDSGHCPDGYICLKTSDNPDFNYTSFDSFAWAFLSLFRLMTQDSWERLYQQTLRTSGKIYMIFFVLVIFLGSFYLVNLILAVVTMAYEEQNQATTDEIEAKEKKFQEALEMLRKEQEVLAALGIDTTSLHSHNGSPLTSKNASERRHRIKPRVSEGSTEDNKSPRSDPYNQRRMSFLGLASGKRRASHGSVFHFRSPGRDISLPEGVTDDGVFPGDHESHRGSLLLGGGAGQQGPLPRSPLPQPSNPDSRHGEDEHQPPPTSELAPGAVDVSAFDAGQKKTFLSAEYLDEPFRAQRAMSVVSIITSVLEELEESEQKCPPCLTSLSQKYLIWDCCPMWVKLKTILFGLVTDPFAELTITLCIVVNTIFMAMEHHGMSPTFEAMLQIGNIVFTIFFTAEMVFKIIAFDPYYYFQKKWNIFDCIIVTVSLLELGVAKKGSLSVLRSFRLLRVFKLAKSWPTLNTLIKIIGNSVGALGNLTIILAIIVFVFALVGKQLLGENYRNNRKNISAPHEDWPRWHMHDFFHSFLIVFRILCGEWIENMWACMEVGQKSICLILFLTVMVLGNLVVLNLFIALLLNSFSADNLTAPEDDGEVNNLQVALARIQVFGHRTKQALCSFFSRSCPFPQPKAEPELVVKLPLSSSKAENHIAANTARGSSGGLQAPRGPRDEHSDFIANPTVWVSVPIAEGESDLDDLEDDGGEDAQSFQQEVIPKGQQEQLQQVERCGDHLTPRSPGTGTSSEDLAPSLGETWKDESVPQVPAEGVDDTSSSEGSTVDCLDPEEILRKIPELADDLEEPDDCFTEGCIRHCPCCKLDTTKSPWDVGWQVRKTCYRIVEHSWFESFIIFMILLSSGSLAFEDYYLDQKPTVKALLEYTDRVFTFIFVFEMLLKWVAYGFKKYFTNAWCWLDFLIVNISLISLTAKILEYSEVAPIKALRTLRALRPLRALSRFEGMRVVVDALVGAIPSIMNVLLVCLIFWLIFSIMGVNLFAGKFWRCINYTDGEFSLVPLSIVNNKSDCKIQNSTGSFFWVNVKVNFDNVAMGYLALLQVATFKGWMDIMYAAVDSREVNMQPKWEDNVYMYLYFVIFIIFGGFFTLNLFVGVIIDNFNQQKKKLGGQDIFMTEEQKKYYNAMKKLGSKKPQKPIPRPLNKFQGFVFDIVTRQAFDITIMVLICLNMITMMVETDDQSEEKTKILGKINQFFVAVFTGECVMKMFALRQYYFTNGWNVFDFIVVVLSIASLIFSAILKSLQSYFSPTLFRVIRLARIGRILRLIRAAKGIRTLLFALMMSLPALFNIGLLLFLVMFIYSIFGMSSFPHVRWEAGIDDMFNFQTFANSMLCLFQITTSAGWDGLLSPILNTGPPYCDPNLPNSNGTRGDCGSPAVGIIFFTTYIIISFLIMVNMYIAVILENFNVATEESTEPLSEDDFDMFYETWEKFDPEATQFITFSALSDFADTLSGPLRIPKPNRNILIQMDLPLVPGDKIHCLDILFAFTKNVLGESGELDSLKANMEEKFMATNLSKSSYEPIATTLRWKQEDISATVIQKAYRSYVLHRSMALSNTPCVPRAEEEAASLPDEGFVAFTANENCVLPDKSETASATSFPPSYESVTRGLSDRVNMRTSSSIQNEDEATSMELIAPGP
T2 sequence (Q9NY46 whole entry): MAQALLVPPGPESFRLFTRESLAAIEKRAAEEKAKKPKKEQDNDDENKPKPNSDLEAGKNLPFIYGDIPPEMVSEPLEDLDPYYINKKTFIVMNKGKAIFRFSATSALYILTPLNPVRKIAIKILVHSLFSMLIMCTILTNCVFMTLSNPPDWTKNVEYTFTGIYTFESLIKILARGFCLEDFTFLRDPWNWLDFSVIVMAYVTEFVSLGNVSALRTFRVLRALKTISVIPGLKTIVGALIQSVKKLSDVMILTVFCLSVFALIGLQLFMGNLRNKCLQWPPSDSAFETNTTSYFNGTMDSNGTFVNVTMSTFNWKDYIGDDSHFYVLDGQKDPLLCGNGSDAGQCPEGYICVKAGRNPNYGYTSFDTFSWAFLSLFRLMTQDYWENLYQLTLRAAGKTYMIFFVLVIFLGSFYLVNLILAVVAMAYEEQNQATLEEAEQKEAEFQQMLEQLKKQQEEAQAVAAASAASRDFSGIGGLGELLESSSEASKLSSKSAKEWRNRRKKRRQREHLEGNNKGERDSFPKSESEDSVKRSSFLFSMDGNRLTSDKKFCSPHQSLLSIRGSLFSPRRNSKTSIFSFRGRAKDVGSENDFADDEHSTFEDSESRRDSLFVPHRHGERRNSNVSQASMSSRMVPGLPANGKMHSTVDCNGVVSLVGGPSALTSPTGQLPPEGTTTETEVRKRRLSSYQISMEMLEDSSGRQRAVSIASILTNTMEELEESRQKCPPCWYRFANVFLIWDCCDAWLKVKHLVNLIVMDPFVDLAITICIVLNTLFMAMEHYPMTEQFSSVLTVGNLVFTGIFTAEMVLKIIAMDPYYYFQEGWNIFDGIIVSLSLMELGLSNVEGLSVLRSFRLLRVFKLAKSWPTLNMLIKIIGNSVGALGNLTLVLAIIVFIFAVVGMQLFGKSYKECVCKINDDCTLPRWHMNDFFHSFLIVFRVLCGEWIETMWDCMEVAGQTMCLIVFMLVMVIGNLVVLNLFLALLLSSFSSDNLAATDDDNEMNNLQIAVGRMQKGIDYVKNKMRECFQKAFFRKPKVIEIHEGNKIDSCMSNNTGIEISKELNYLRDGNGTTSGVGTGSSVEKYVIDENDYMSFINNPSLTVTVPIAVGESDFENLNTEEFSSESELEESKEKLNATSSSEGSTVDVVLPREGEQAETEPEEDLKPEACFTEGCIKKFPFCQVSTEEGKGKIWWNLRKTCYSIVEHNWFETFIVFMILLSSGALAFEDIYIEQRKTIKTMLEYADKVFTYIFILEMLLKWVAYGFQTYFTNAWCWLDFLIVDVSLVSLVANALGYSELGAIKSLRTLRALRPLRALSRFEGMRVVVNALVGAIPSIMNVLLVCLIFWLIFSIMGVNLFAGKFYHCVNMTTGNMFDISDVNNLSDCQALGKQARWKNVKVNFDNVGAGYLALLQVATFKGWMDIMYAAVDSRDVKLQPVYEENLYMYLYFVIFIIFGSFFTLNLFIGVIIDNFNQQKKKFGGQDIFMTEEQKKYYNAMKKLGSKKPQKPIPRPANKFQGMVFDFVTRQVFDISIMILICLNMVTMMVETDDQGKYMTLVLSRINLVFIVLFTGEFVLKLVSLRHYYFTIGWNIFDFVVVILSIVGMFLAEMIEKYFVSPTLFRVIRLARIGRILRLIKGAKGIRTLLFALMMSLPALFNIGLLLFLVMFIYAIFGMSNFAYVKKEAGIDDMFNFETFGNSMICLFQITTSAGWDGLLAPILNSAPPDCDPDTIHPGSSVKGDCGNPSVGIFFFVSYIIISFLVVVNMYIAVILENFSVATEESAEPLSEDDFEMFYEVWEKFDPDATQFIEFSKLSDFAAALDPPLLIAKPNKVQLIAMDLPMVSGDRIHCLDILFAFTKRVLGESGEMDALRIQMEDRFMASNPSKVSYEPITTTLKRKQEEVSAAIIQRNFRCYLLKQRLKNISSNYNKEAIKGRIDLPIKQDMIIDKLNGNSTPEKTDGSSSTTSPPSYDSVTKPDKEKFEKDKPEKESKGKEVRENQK

By IC50 is commonly meant the concentration at which inhibition is half-maximal. Consider `CC(C)N(Cc1ccccc1)C(=O)c1cnc(N2CCCCC2)nc1-c1ccccc1Cl` [compound 1], for which the IC50 in assay [1] is 2 to 10 µM; in assay [2] it was less than 2 µM; in assay [3], 2 to 10 µM.
`CC(C)(C)c1ccc(CN(C(=O)c2cnc(N3CCSCC3)nc2-c2ccccc2F)C2CC2)cc1` [compound 2]: the IC50 was greater than 10 µM in assay [1], 2 to 10 µM in assay [2] and greater than 10 µM in assay [3].
For the compound `CC(C)N(C(=O)c1cnc(N2CCCCC2)nc1-c1ccccc1Cl)c1cccc(C(C)(C)C)c1` [compound 3], the values for the IC50 in assay [1], in assay [2] and in assay [3] were greater than 10 µM, greater than 10 µM and 2 to 10 µM, respectively.
As for `CCCN(CC1CC1)c1ncc(C(=O)N(Cc2cccc(OC)c2)C(C)C)c(-c2ccccc2F)n1` [compound 4], the IC50 in assay [1] is 2 to 10 µM; in assay [2], less than 2 µM; in assay [3], 2 to 10 µM.
For `CC(C)N(Cc1cccc(O)c1)C(=O)c1cnc(N2CCOCC2)nc1-c1ccccc1F` [compound 5], the values for the IC50 in assay [1], in assay [2] and in assay [3] were greater than 10 µM, 2 to 10 µM and greater than 10 µM, respectively.
Consider `O=C(c1cnc(N2CCCCC2)nc1-c1ccccc1Cl)N(Cc1ccc2c(c1)CCO2)C1CC1` [compound 7], for which the 50% inhibitory concentration (IC50) is greater than 10 µM in assay [1], 2 to 10 µM in assay [2] and 2 to 10 µM in assay [3].
Regarding `COc1cccc(N(C(=O)c2cnc(N3CCCCC3)nc2-c2ccccc2Cl)C2CCCC2)c1` [compound 8], the IC50 in assay [1] was greater than 10 µM; in assay [2], 2 to 10 µM; in assay [3], 2 to 10 µM.
For `Cc1nc(N2CCOCC2)nc(-c2ccccc2F)c1C(=O)N(Cc1ccc(F)cc1)C1CC1` [compound 9], the IC50 was greater than 10 µM in assay [1], 2 to 10 µM in assay [2] and 2 to 10 µM in assay [3].
Take `Cc1cccc(CN(C(=O)c2c(C)nc(N3CCOCC3)nc2-c2ccccc2F)C2CC2)c1` [compound 10]: the figures for the half-inhibitory concentration (IC50) in assay [1], in assay [2] and in assay [3] were greater than 10 µM, 2 to 10 µM and 2 to 10 µM, respectively.
With `CCNc1ncc(C(=O)N(Cc2ccccc2)C(C)C)c(-c2ccccc2F)n1` [compound 11], the half-inhibitory concentration (IC50) in assay [1], in assay [2] and in assay [3] was greater than 10 µM each time.
As for `COc1ccc(N(C(=O)c2cnc(N3CCC4CCCCC4C3)nc2-c2ccccc2F)C(C)C)cc1` (stereo not shown) [compound 12], the IC50 in assay [1] is greater than 10 µM; in assay [2] it was less than 2 µM; in assay [3] it was greater than 10 µM.
On to `Cc1nc(N2CCOCC2)nc(-c2ccccc2F)c1C(=O)N(Cc1ccccc1)C(C)C` [compound 13], for which the IC50 was greater than 10 µM in assay [1], 2 to 10 µM in assay [2] and greater than 10 µM in assay [3].
Regarding `O=C(c1cnc(N2CCCCC2)nc1-c1ccccc1F)N(Cc1cccc(-c2ccncc2)c1)C1CC1` [compound 14], the IC50 in assay [1] is greater than 10 µM; in assay [2], 2 to 10 µM; in assay [3], greater than 10 µM.
Take `COc1cccc(Nc2ncc(C(=O)N(Cc3ccccc3)C(C)C)c(-c3ccccc3F)n2)c1` [compound 15]: the IC50 in assay [1], in assay [2] and in assay [3] was greater than 10 µM throughout.
As to `CC(C)N(Cc1ccccc1)C(=O)c1cnc(N2CCOCC2)nc1-c1ccc(F)c(F)c1` [compound 16], the half-inhibitory concentration (IC50) in assay [1], in assay [2] and in assay [3] was greater than 10 µM in each case.
For the compound `CC(C)N(Cc1ccccc1)C(=O)c1cnc(N2CCOCC2)nc1-c1cccc(/C=C/C(=O)O)c1` [compound 17], the 50% inhibitory concentration (IC50) in assay [1], in assay [2] and in assay [3] was greater than 10 µM throughout.
Consider `CN1CCN(c2ncc(C(=O)N(Cc3ccncc3)C3CC3)c(-c3ccccc3F)n2)CC1` [compound 18], for which the IC50 in assay [1], in assay [2] and in assay [3] was greater than 10 µM each time.
As for `O=C(NC1CCCC1)c1cnc(N2CCOCC2)nc1-c1ccccc1F` [compound 19], the IC50 in assay [1], in assay [2] and in assay [3] was greater than 10 µM each time.
For `COc1cccc(CN(C(=O)c2cnc(N3CCCCC3)nc2-c2ccccc2F)C(C)C)c1` [compound 20, 4-(2-fluorophenyl)-N-isopropyl-N-(3-methoxybenzyl)-2-(piperidin-1-yl)pyrimidine-5-carboxamide], the concentration for half-maximal inhibition (IC50) was 2 to 10 µM in assay [1], less than 2 µM in assay [2] and 2 to 10 µM in assay [3].
As to `COc1cccc(N(C(=O)c2c(C)nc(N3CCOCC3)nc2-c2ccccc2F)C(C)C)c1` [compound 21], the IC50 in assay [1], in assay [2] and in assay [3] was greater than 10 µM each time.
On to `COc1cccc(CN(C(=O)c2cnc(N3CCc4ccccc4C3)nc2-c2ccccc2F)C(C)C)c1` [compound 22], for which the IC50 in assay [1] was greater than 10 µM; in assay [2], less than 2 µM; in assay [3], 2 to 10 µM.
The like results for `CC(C)N(C(=O)c1cnc(N2CCN(C)CC2)nc1-c1ccccc1F)c1ccccc1` [compound 23] were, in that order, greater than 10 µM, greater than 10 µM and greater than 10 µM.
Regarding `CC(C)N(Cc1ccc(C(C)(C)C)cc1)C(=O)c1cnc(N2CCOCC2)nc1-c1ccccc1F` [compound 24], the IC50 in assay [1] was 2 to 10 µM; in assay [2], less than 2 µM; in assay [3] it was 2 to 10 µM.
As to `Cc1nc(N2CCOCC2)nc(-c2ccccc2F)c1C(=O)N(c1ccccc1)C(C)C` [compound 25], the IC50 in assay [1], in assay [2] and in assay [3] was greater than 10 µM in each case.
In the case of `O=C(c1cnc(N2CCOCC2)nc1-c1ccccc1F)N(Cc1ccccc1)C1CCC1` [compound 26], the IC50 in assay [1] was greater than 10 µM; in assay [2], 2 to 10 µM; in assay [3], 2 to 10 µM.
As to `COc1cccc(N(C(=O)c2cnc(N3CCCCC3)nc2-c2ccccc2Cl)C2CCC2)c1` [compound 27], the 50% inhibitory concentration (IC50) was greater than 10 µM in assay [1], 2 to 10 µM in assay [2] and 2 to 10 µM in assay [3].
`CN(C)CCN(Cc1ccccc1)C(=O)c1cnc(N2CCOCC2)nc1-c1ccccc1F` [compound 28]: the IC50 in assay [1], in assay [2] and in assay [3] was greater than 10 µM throughout.
As for `CC1CCN(C(=O)c2cnc(N3CCOCC3)nc2-c2ccccc2F)CC1` [compound 337], the IC50 in assay [2] and in assay [3] was greater than 10 µM each time.
As for `COCCCNC(=O)c1cnc(N2CCN(C(C)=O)CC2)nc1-c1cccc(C)c1` [compound 339], the IC50 in assay [2] and in assay [3] was greater than 10 µM in each case.
In the case of `CCN(Cc1ccccc1)C(=O)c1cnc(N2CCCC2)nc1-c1ccc(C#N)cc1` [compound 340], the IC50 in assay [2] and in assay [3] was greater than 10 µM each time.
As to `CC(C)CN(CC(C)C)C(=O)c1cnc(N2CCCC2)nc1-c1ccc(C#N)cc1` [compound 341], the concentration for half-maximal inhibition (IC50) in assay [2] and in assay [3] was greater than 10 µM in each case.
On to `O=C(c1cnc(NCc2ccc3c(c2)OCO3)nc1-c1ccc(-c2ccccc2)cc1)N1CCCCC1` [compound 342], for which the IC50 in assay [2] and in assay [3] was greater than 10 µM in each case.
For `CCN(C)c1ncc(C(=O)N2CCC(C)CC2)c(-c2cccc(C)c2)n1` [compound 343], the IC50 in assay [2] and in assay [3] was greater than 10 µM each time.
`CCCCNc1ncc(C(=O)N2CCC(C)CC2)c(-c2ccc(C#N)cc2)n1` [compound 344]: the IC50 in assay [2] and in assay [3] was greater than 10 µM each time.
For the compound `N#Cc1ccc(-c2nc(NCC3CCCCC3)ncc2C(=O)NCCc2cccc(F)c2)cc1` [compound 345], the half-maximal inhibitory concentration (IC50) in assay [2] and in assay [3] was greater than 10 µM each time.
For `N#Cc1ccc(-c2nc(N3CCCC3)ncc2C(=O)NCC2CCCCC2)cc1` [compound 346], the IC50 in assay [2] and in assay [3] was greater than 10 µM in each case.
Take `CCN(C)c1ncc(C(=O)N2CC(C)CC(C)C2)c(-c2ccc(C#N)cc2)n1` (stereo not shown) [compound 347]: the concentration for half-maximal inhibition (IC50) in assay [2] and in assay [3] was greater than 10 µM throughout.
For `COCCNc1ncc(C(=O)N(CC(C)C)CC(C)C)c(-c2cccc(C)c2)n1` [compound 348], the half-inhibitory concentration (IC50) in assay [2] and in assay [3] was greater than 10 µM each time.
Regarding `COCCCNC(=O)c1cnc(N2CCOCC2)nc1-c1ccc(C#N)cc1` [compound 349], the IC50 in assay [2] and in assay [3] was greater than 10 µM throughout.
With `CCN(Cc1ccccc1)C(=O)c1cnc(N2CCOCC2)nc1-c1ccccc1F` [compound 350], the half-inhibitory concentration (IC50) in assay [2] and in assay [3] was greater than 10 µM throughout.
In the case of `O=C(c1cnc(NCC2CCCCC2)nc1-c1ccccc1F)N1CCOCC1` [compound 351], the IC50 in assay [2] and in assay [3] was greater than 10 µM each time.
